What was measured:
[1] = Cytotoxicity study using MTT assay, NIH/3T3; type: cell-based, mouse; details: mouse, NIH/3T3 fibroblast cells, extract, 24 h, MTT, mean, read-out: Cell Viability (%) NIH/3T3 M; for viability at 24 h, 20 µM (stock): NIH/3T3, inhibitor concentration 20 μM; for viability at 24 h, 50 µM (stock): NIH/3T3, inhibitor concentration 50 µM; for viability at 24 h, 100 µM (stock): NIH/3T3, inhibitor concentration 100 µM
Method: (§1) Two cell lines, fibroblastic cells NIH/3T3 from mouse embryo (93061524) obtained from Health Protection Agency Culture Collections and supplied by Sigma and MG-63 osteoblast-like cells from human osteosarcoma (ATCC® CRL-1427^TM) were used for cytotoxicity studies. Defrosting and handling of cell lines was carried out according to supplier information.
(§2) The NIH/3T3 cells were grown in Dulbecco’s Modified Eagle Medium (DMEM, Sigma) supplemented with 10% calf bovine serum (Sigma) and 1% Penicillin-Streptomycin solution: 10,000 U/mL penicillin, 10 mg/mL streptomycin, Sigma) and 2.5 mg/L amphotericin B (fungizone, Sigma). MG-63 cells were grown in Eagle’s Minimum Essential Medium (EMEM, Sigma) supplemented with 10% fetal bovine serum and 1% of antibiotics and 2.5 mg/L antimycotics solutions.
(§3) Extracts from each compound A, B or C were prepared by spreading 20 μL of a solution with 20 μM, 50 μM or 100 μM of each compound in a glass petri dish, allowed to dry, and incubated at 37 °C under humidified 5% CO2 for 24 h with 10 mL of the corresponding growth medium according to ISO 10993–12: 2012.
(§4) The cytotoxicity assay was performed as follows: 1 × 10^4 cells per well, from passages 8 to 12, were seeded in 96-well plates (eight replicates) and incubated at 37 °C under humidified 5% CO2 for 24 h. After proliferation, the cell medium was replaced by 200 μL of each extract and incubated under the same conditions for 24 h. As positive control cells were grown in their medium containing 7.5% DMSO (Sigma) and as negative control cells proliferated in medium without any toxic corresponding to 100% cell viability. MTT assays were performed as previously described. Briefly, extracts or medium were removed, an MTT solution (0.5 mg/mL prepared in serum-free medium, Sigma) was added to each well and cells were incubated for additional 3 h. After that, a solution containing 0.1% IGEPAL (Merck), 4 mM HCl (Sigma) in isopropanol (Sigma) was used to dissolve formazan. Plates were incubated with agitation for one hour and absorbance was read at 595 nm with a microplate reader (Bio-Rad®, Hercules, California, USA).

[2] = test system: NIH/3T3 fibroblast cells; assay: Cytotoxicity study using MTT assay, NIH/3T3; type: cell-based, mouse; details: NIH/3T3 cells, 50 and 100 µM
Method: as §1, §2, §3, §4

[3] = Cytotoxicity study using MTT assay, MG-63; type: cell-based; details: human, MG-63 osteoblast-like cells, extract, mean, read-out: Cell Viability (%) MG-63 M; for viability at 24 h, 20 µM (stock): MG-63, inhibitor concentration 20 μM; for viability at 24 h, 50 µM (stock): MG-63, inhibitor concentration 50 µM; for viability at 24 h, 100 µM (stock): MG-63, inhibitor concentration 100 µM
Method: as §1, §2, §3, §4

[4] = test system: MMPs; assay: Preliminary biochemical tests (not shown); details: data not shown, most MMPs
Source text: However, there were additional interactions between the compounds and the enzyme depending on the enzyme class (collagenases and gelatinases) (See Appendix B, Appendix C, Appendix D and Appendix E).

Row | Compound | viability at 24 h, 20 µM (stock) [1] | viability at 24 h, 50 µM (stock) [1] | viability at 24 h, 100 µM (stock) [1] | toxicity according to ISO 10993–5: 2009 (viable cells decreased more than 30%) [2] | viability at 24 h, 20 µM (stock) [3] | viability at 24 h, 50 µM (stock) [3] | viability at 24 h, 100 µM (stock) [3] | MMP activity reduction [4]
1 | C=C(C)C(=O)Oc1ccc(-c2ccc(C#N)cc2)cc1 [Compound A, 4′-cyano-[1,1′-bihenyl]-4-yl methacrylate] | 85.1% | 54.2% | 45.5% | toxic | 82.6% | 73.6% | 73% | encouraging indications on activity reduction
2 | C=C(C)C(=O)OCCCCCOc1ccc(-c2ccc(C#N)cc2)cc1 [Compound B, 5-((4′-cyano-[1,1′-biphenyl]-4-yl)oxy)pentyl methacrylate] | 78.6% | 50.5% | 40.5% | toxic | 78.1% | 70.3% | 65.9% | encouraging indications on activity reduction
3 | C=C(C)C(=O)Nc1ccc(Oc2ccc(NC(=O)C(=C)C)cc2)cc1 [Compound C, N,N′-(oxybis(4,1-phenylene))bis(2-methylacrylamide)] | 83.7% | 46.4% | 42.4% | toxic | 85% | 65.8% | 69.2% | encouraging indications on activity reduction
